In article PMC5629628, “The development of activatable lytic peptides for targeting triple negative breast cancer” (Cell Death Discovery, 2017):

How the values were obtained:
[1] = test system: caspase-3/7 in MDA-MB-231 cells; test: Caspase-3/7 activation analysis; assay type: cell-based, human; conditions: MDA-MB-231, 4 h treatment; Uk14 5 μM, Ur11 10 μM, ABT-737 10 μM
Experimental: Cells (MDA-MB-231) were plated 10 000 per well on 96-well plates in medium containing 10% fetal bovine serum and incubated with serial dilution of peptides and ABT-737 for 4 h. Then caspase-3/7 activation was measured by addition of the caspase-Glo 3/7 chemiluminescence reagent in accordance with the manufacturer’s protocol (Promega, Madison, WI, USA).

[2] = test system: MDA-MB-231; test: Cell viability with or without caspase inhibitor Z-VAD-FMK; assay type: cell-based, human; conditions: MDA-MB-231, 24 h treatment, with or without Z-VAD-FMK
Experimental: 100 μl of 4×10^4/ml cell suspension (MDA-MB-231, MCF-7, HeLa, SK-OV-3) was placed in each well of the 96-well culture plate and allowed to grow in dulbecco's modified eagle medium or Leibovitz medium (L-15) supplemented with 10% fetal bovine serum overnight. The cells were incubated with serial dilution of compounds at 310 K in 5% fetal bovine serum containing media for 24 h supplied with 5% CO2. At the end of the compounds exposure, 20 μl of 3-(4,5-dimethyl-2-thiazolyl)-2,5-diphenyl-2-H-tetrazolium bromide reagent was added and incubated at 310 K for 4 h. The absorbance of formazan product was measured at 490 nm by a microplate reader (PerkinElmer, Waltham, MA, USA). Cells without peptide were treated as control. *P<0.05, **P<0.01, ***P<0.001 compared with vehicle-treated cells. In Z-VAD-FMK assays, *P<0.05, **P<0.01, ***P<0.001 compared with cells without treatment of Z-VAD-FMK.

Structure (SMILES): CN(C)CC[C@H](CSc1ccccc1)Nc1ccc(S(=O)(=O)NC(=O)c2ccc(N3CCN(Cc4ccccc4-c4ccc(Cl)cc4)CC3)cc2)cc1[N+](=O)[O-] [ABT-737, reference compound]
- caspase-3/7 activation [1]: observed
- effect of caspase inhibitor Z-VAD-FMK on cytotoxic effect [2]: did have an inhibitory effect
